One assay relates to HT-29. As to the kind of experiment: cells. The conditions noted are these: Homo sapiens, HT-29, 72 h.
A further assay relates to MDA-MB-231. As to the kind of experiment: Cytotoxicity against human MDA-MB-231 cells assessed as inhibition of cell proliferation measured after 72 hrs by MTT assay. To be noted: MDA-MB-231, 72 h. Format: functional, cell-based. (In general: Tetrazolium assays rely on reduction of a dye to a coloured formazan, in cell work by metabolically active cells.)
Another assay concerns A549. Kind of assay: cells. To be noted: Homo sapiens, A549, 72 h.
A further assay has as its system MKN-45. Kind of assay: Cytotoxicity against human MKN-45 cells assessed as inhibition of cell proliferation measured after 72 hrs by MTT assay. The assay is classed as functional, cell-based. To be noted: MKN-45, 72 h.

Molecules are shown by their SMILES.

By IC50 is commonly meant the concentration that gives 50% inhibition. Regarding `COc1cc2nccc(Oc3ccc(N/C(Cc4cccnc4)=N\S(=O)(=O)Cc4ccc(F)cc4)cc3F)c2cc1OC`, the IC50 came to 15.5 µM with HT-29, 22.3 µM with MDA-MB-231, 13.2 µM with A549 and 18.6 µM in the assay on MKN-45.
For `COCC/C(=N\S(=O)(=O)Cc1ccc(Cl)c(Cl)c1)Nc1ccc(Oc2ccnc3cc(OCCCN4CCOCC4)c(OC)cc23)c(F)c1`, the half-maximal inhibitory concentration (IC50) with HT-29 was found to be 0.59 µM; in the assay with MDA-MB-231 it was 1.04 µM; in the assay with A549, 0.47 µM; with MKN-45, 0.72 µM.
As for `COCC/C(=N\S(=O)(=O)Cc1ccc(Cl)cc1)Nc1ccc(Oc2ccnc3cc(OCCCN4CCC(C)CC4)c(OC)cc23)c(F)c1`, the half-maximal inhibitory concentration (IC50) with HT-29 was found to be 0.55 µM; with MDA-MB-231, 1.56 µM; in the assay with A549 it was 0.38 µM; with MKN-45, 0.76 µM.
The corresponding values for `COCC/C(=N\S(=O)(=O)Cc1ccc(Cl)c(Cl)c1)Nc1ccc(Oc2ccnc3cc(OCCCN4CCN(C)CC4)c(OC)cc23)c(F)c1` are 0.74 µM, 1.35 µM, 0.61 µM and 0.82 µM.
Turning to `CCCCC/C(=N\S(=O)(=O)Cc1ccc(F)cc1)Nc1ccc(Oc2ccnc3cc(OC)c(OC)cc23)c(F)c1`, the IC50 in the assay with HT-29 was 5.18 µM; with MDA-MB-231, 9.04 µM; in the assay on A549, 4.6 µM; with MKN-45, 5.54 µM.
Turning to `COCC/C(=N\S(=O)(=O)Cc1ccc(C)cc1)Nc1ccc(Oc2ccnc3cc(OC)c(OC)cc23)c(F)c1`, the half-inhibitory concentration (IC50) in the assay on HT-29 was determined as 8.74 µM; in the assay with MDA-MB-231, 13.7 µM; in the assay with A549, 8.02 µM; in the assay with MKN-45 it was 9.75 µM.
Consider `CCCCC/C(=N\S(=O)(=O)Cc1ccccc1)Nc1ccc(Oc2ncnc3cc(OC)c(OC)cc23)c(F)c1`, for which the results for the half-maximal inhibitory concentration (IC50) in the assay on HT-29 and in the assay on A549 were 30.5 µM and 27.1 µM, respectively.
In the case of `COCC/C(=N\S(=O)(=O)Cc1ccc(Cl)cc1)Nc1ccc(Oc2ccnc3cc(OC)c(OC)cc23)c(F)c1`, the concentration for half-maximal inhibition (IC50) came out at 0.91 µM in the assay on HT-29, 2.32 µM with MDA-MB-231, 0.62 µM in the assay on A549 and 1.05 µM with MKN-45.
As to `CCCCOc1cc2nccc(Oc3ccc(N/C(CCOC)=N/S(=O)(=O)Cc4ccc(Cl)cc4)cc3F)c2cc1OC`, the half-inhibitory concentration (IC50) in the assay with HT-29 stood at 2.85 µM; in the assay on MDA-MB-231, 5.46 µM; in the assay with A549, 2.56 µM; with MKN-45, 3.05 µM.
For `COCC/C(=N\S(=O)(=O)Cc1cccc(C)c1)Nc1ccc(Oc2ccnc3cc(OC)c(OC)cc23)c(F)c1` the same measures were 8.02 µM, 13.1 µM, 7.54 µM and 9.15 µM.
For the compound `COCC/C(=N\S(=O)(=O)Cc1ccccc1F)Nc1ccc(Oc2ccnc3cc(OC)c(OC)cc23)c(F)c1`, the IC50 was determined as 3.16 µM in the assay on HT-29, 5.67 µM in the assay with MDA-MB-231, 2.85 µM in the assay on A549 and 3.26 µM in the assay with MKN-45.
For the compound `COc1cc2nccc(Oc3ccc(N/C(Cc4cccnc4)=N\S(=O)(=O)Cc4ccccc4)cc3F)c2cc1OC`, the IC50 turned out to be 20.6 µM with HT-29, 28.3 µM with MDA-MB-231, 18.1 µM in the assay on A549 and 22.9 µM in the assay with MKN-45.
In the case of `COCC/C(=N\S(=O)(=O)Cc1ccc(Cl)c(Cl)c1)Nc1ccc(Oc2ccnc3cc(OCCCN4CCC(C)CC4)c(OC)cc23)c(F)c1`, the IC50 in the assay on HT-29 is 0.88 µM; in the assay on MDA-MB-231 it was 1.98 µM; in the assay on A549 it was 0.72 µM; in the assay on MKN-45 it was 1.15 µM.
For the compound `COc1cc2nccc(Oc3ccc(N/C(Cc4ccccc4)=N\S(=O)(=O)Cc4ccccc4)cc3F)c2cc1OC`, the results for the concentration for half-maximal inhibition (IC50) with HT-29, with A549 and in the assay with MKN-45 were 32.6 µM, 28.4 µM and 26.3 µM, respectively.
`CCCCC/C(=N\S(=O)(=O)Cc1ccccc1)Nc1ccc(Oc2ncnc3ccsc23)c(F)c1`: the IC50 in the assay with HT-29 was found to be 18.6 µM; in the assay with MDA-MB-231 it was 25.6 µM; in the assay on A549, 17.3 µM; in the assay on MKN-45 it was 21.9 µM.
Turning to `COc1cc2nccc(Oc3ccc(N/C(Cc4ccccc4)=N\S(=O)(=O)Cc4ccc(F)cc4)cc3F)c2cc1OC`, the figures for the IC50 in the assay on HT-29, with MDA-MB-231 and in the assay with A549 were 23.7 µM, 32.5 µM and 20.4 µM, respectively.
As for `COc1cc2nccc(Oc3ccc(N/C(Cc4ccsc4)=N\S(=O)(=O)Cc4ccccc4)cc3F)c2cc1OC`, the IC50 was determined as 16.5 µM in the assay on HT-29, 23.8 µM with MDA-MB-231 and 14.3 µM with A549.
For `COc1cc2nccc(Oc3ccc(N/C(CC4CCCCC4)=N\S(=O)(=O)Cc4ccc(F)cc4)cc3F)c2cc1OC`, the half-inhibitory concentration (IC50) in the assay with HT-29 stood at 10.3 µM; in the assay on MDA-MB-231 it was 19.7 µM; in the assay on A549, 9.43 µM; with MKN-45 it was 15.2 µM.
As for `CCCCC/C(=N\S(=O)(=O)Cc1ccc(F)cc1)Nc1ccc(Oc2ccnc3ccsc23)c(F)c1`, the concentration for half-maximal inhibition (IC50) in the assay with HT-29 is 7.06 µM; with MDA-MB-231, 14.6 µM; in the assay with A549, 6.23 µM; in the assay on MKN-45, 9.17 µM.
Take `COCC/C(=N\S(=O)(=O)Cc1ccc(Cl)cc1)Nc1ccc(Oc2ccnc3cc(OCCCN4CCCCC4)c(OC)cc23)c(F)c1`: the half-inhibitory concentration (IC50) was 0.41 µM in the assay on HT-29, 1.12 µM in the assay with MDA-MB-231, 0.35 µM with A549 and 0.65 µM with MKN-45.
The corresponding values for `COCC/C(=N\S(=O)(=O)Cc1ccccc1)Nc1ccc(Oc2ccnc3cc(OC)c(OC)cc23)c(F)c1` are 3.52 µM, 6.64 µM, 3.14 µM and 4.05 µM.
With `CCCCOc1cc2nccc(Oc3ccc(N/C(CCOC)=N/S(=O)(=O)Cc4ccc(Cl)c(Cl)c4)cc3F)c2cc1OC`, the half-inhibitory concentration (IC50) in the assay with HT-29 is 4.05 µM; in the assay on MDA-MB-231 it was 7.19 µM; in the assay with A549, 3.53 µM; with MKN-45, 4.36 µM.
Consider `COCC/C(=N\S(=O)(=O)Cc1ccc(C(F)(F)F)cc1)Nc1ccc(Oc2ccnc3cc(OC)c(OC)cc23)c(F)c1`, for which the IC50 in the assay on HT-29 turned out to be 13.2 µM; in the assay with MDA-MB-231, 20.4 µM; with A549, 11.3 µM; with MKN-45, 15.3 µM.
On to `COCC/C(=N\S(=O)(=O)Cc1ccc(Cl)cc1)Nc1ccc(Oc2ccnc3cc(OCCCN4CCN(C)CC4)c(OC)cc23)c(F)c1`, for which the half-maximal inhibitory concentration (IC50) was 0.36 µM with HT-29, 1.24 µM in the assay on MDA-MB-231, 0.32 µM with A549 and 0.61 µM in the assay with MKN-45.
The corresponding values for `CCCCC/C(=N\S(=O)(=O)Cc1ccc(F)cc1)Nc1ccc(Oc2ncnc3cc(OC)c(OC)cc23)c(F)c1` are 22.1 µM, 31.8 µM, 18.6 µM and 23.4 µM.
For `COc1cc2nccc(Oc3ccc(N/C(Cc4ccsc4)=N\S(=O)(=O)Cc4ccc(F)cc4)cc3F)c2cc1OC`, the 50% inhibitory concentration (IC50) in the assay with HT-29 turned out to be 11.2 µM; in the assay on MDA-MB-231 it was 19.5 µM; in the assay on A549 it was 10.1 µM; with MKN-45 it was 11.9 µM.
For `CCCCC/C(=N\S(=O)(=O)Cc1ccccc1)Nc1ccc(Oc2ccnc3ccsc23)c(F)c1`, the IC50 was 9.63 µM with HT-29, 15.3 µM in the assay with MDA-MB-231, 8.68 µM in the assay with A549 and 11.5 µM in the assay on MKN-45.
As to `COc1cc2nccc(Oc3ccc(N/C(CC4CCCCC4)=N\S(=O)(=O)Cc4ccccc4)cc3F)c2cc1OC`, the IC50 worked out at 14.5 µM in the assay on HT-29, 20.4 µM with MDA-MB-231, 12.2 µM in the assay with A549 and 16.3 µM in the assay with MKN-45.
The corresponding values for `COCC/C(=N\S(=O)(=O)Cc1ccccc1C)Nc1ccc(Oc2ccnc3cc(OC)c(OC)cc23)c(F)c1` are 4.85 µM, 8.19 µM, 4.15 µM and 5.16 µM.

The values above are taken from ChEMBL document CHEMBL4765349, “Design, synthesis and biological evaluation of novel N-sulfonylamidine-based derivatives as c-Met inhibitors via Cu-catalyzed three-component reaction” (Eur J Med Chem, 2020).
